What was measured:
[1] = Accelerated deterioration (xenon weather meter X25, 120 hours) of photochromic laminate prepared by coating method; format: physicochemical; settings: 0.25 mmol per 100 g monomers, A120/A0×100 after 120 hours xenon weather meter
Method in brief: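 Photochromic compound at 0.25 mmol per 100 g of methacrylate monomers, spin-coated as a 40 µm layer on a primed 1.60-index thiourethane lens, then light-cured and heated at 110°C for 1 h. Color optical density at λmax (23°C, 300 s irradiation) measured before (A0) and after 120 h xenon exposure (A120). Residual rate = A120/A0×100.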

[2] = Photochromic properties of photochromic cured product prepared by kneading method; format: physicochemical; settings: 0.106 mmol per 100 g monomer; for A23: 1 mm cured product, 23°C color optical density ε(300)-ε(0); for Maximum absorption wavelength: 1 mm thiourethane cured product, after color development
Experimental: • [1] Maximum Absorption Wavelength (λmax): The maximum absorption wavelength after color development, measured using a spectrophotometer (instantaneous multichannel photodetector MCPD3000) manufactured by Otsuka Electronics Co., Ltd. was used as an indicator for the color tone during the color development. • [2] 23°C Color Optical Density (A23): A difference between an absorbancy measured after light irradiation at 23°C for 300 seconds {ε(300)} and an absorbancy without light irradiation ε(0) at the maximum absorption wavelength was used as an indicator for the color optical density. […] 23°C color fading half-life [τ1/2 (sec.)]: A time required for the absorbancy of the sample at the maximum absorption wavelength to decrease to 1/2 of {ε(300)-ε(0)} when the light irradiation was terminated after the light irradiation at 23°C for 300 seconds, was used as an indicator for the color fading speed. The shorter this time, the higher the color fading speed. • [4] Residual rate (A120/A0×100): The obtained photochromic plastic lens was subjected to accelerated deterioration using a xenon weather meter X25 manufactured by Suga Test Instruments Co., Ltd. for 120 hours. Subsequently, the color optical density was evaluated before and after the test, then a color optical density before the test (A0) and a color optical density after the test (A120) were measured, and a ratio (A120/A0) was defined as a residual rate. The residual rate was used as an indicator for a color developing durability. The higher the residual rate, the higher the color developing durability. The results of Examples 26, 50, and Comparative Examples 1 to 8 are summarized in Table 1, and the results of Examples 27 to 49 are summarized in Tables 2 and 3.
First, the photochromic compound obtained in Example 1, additives, and a polymerizable compound were mixed to obtain a curable composition.
As the polymerizable compound, a combination of the following polymerizable monomers was used. • 1,3-bis(isocyanatomethyl)cyclohexane: 36.7 parts by mass Pentaerythritol tetrakis(3-mercaptopropionate): 39.4 parts by mass • Polyoxyethylene polyoxypropylene lauryl ether (Wonder Surf 140 manufactured by Aoki Oil Industrial Co., Ltd.): 17.4 parts by mass • 1-decanethiol: 2.8 parts by mass • RX-1 adjusted according to the method described in Patent Document 13: 3.8 parts by mass
Note that the photochromic compound was added to the curable composition so that the amount of the photochromic compound was 0.106 mmol based on 100 g of the total amount of the polymerizable monomer. The following additives were used: Dimethyltin dichloride • : 0.05 part by mass • Irganox 245: 0.1 part by mass • 2-ethylhexyl 4-methoxycinnamate: 0.6 part by mass
The prepared curable composition was thoroughly defoamed, then injected into a glass mold having a 1 mm gap, and polymerized by cast polymerization. The polymerization was carried out in an air furnace while gradually raising the temperature from 27°C to 120°C over 18 hours. After the polymerization, the cured product was removed from the glass mold to obtain a photochromic cured product having a thickness of 1 mm. The obtained photochromic cured product was evaluated in the same manner as in Example 26.
(Examples 85 to 99, and Comparative Example 14 to 18) Photochromic cured products were prepared using photochromic compounds presented in Tables 6 and 7 in the same manner as in Example 84. The results of Examples 84 and 85 and Comparative Examples 14 to 18 are summarized in Table 6, and the results of Examples 86 to 99 are summarized in Table 7.

SMILES | Residual rate [1] [%] | A23 [2] | Maximum absorption wavelength [2] [nm] | also measured
COCCOCCOCCOCCC1(CCOCCOCCOCCOC)c2cc(C(F)(F)F)ccc2-c2c1c1c(c3cc(OC)c(OC)cc23)OC(c2ccc(OC)cc2)(c2ccc(N(C)c3ccccc3)cc2)C=C1 (centres unmarked) [Example 51] | 60 | 0.46 - | 486 | A23 ([2]; listed as Formula (89)): 0.45 -; Maximum absorption wavelength ([2]; listed as Formula (89)): 612 nm
CCCC1(CCC)c2cc(OC(F)(F)F)ccc2-c2c1c1c(c3cc(OC)c(Sc4c(C)cccc4C)cc23)OC(c2ccc(N(C)c3ccccc3)cc2)(c2ccc(OC)c(OC)c2)C=C1 (centres unmarked) [Example 57] | 65 | 0.86 - | 496 | A23 ([2]; listed as Formula (110)): 0.88 -; Maximum absorption wavelength ([2]; listed as Formula (110)): 625 nm
COCCCCC1(CCCCOC)c2ccccc2-c2c1c1c(c3cc(-c4ccc(OC)cc4OC)c(OC)cc23)OC(c2ccc(N(C)c3ccccc3)cc2)(c2ccc3c(c2)CCO3)C=C1 (centres unmarked) [Example 62] | 61 | 1.02 - | 479 | A23 ([2]; listed as Formula (124)): 1.11 -; Maximum absorption wavelength ([2]; listed as Formula (124)): 594 nm

Further lines, with some results ahead:

Residual rate [1] [%] | A23 [2] | Maximum absorption wavelength [2] [nm] | SMILES | also measured
64 | 0.87 - | 496 | CCCC1(CCC)c2ccccc2-c2c1c1c(c3cc(OC)c(-c4ccc(OC)cc4OC)cc23)OC(c2ccc(C)cc2)(c2ccc(N(C)c3ccccc3)cc2)C=C1 (centres unmarked) [Example 19] | A23 ([2]; listed as Formula (80)): 1.15 -; Maximum absorption wavelength ([2]; listed as Formula (80)): 610 nm
60 | 0.62 - | 490 | CCCCC1(CCCC)c2cc(-c3ccc(OC(C)C)cc3)ccc2-c2c1c1c(c3cc(OC)ccc23)OC(c2ccc(N(C)c3ccccc3)cc2)(c2ccc(OC)c(F)c2)C=C1 (centres unmarked) [Example 21] | A23 ([2]; listed as Formula (83)): 1.25 -; Maximum absorption wavelength ([2]; listed as Formula (83)): 616 nm
62 | 1.32 - | 505 | CCCC1(CCC)c2ccccc2-c2c1c1c(c3cc(OC)c(-c4ccc(N(C)c5ccccc5)cc4)cc23)OC(c2ccc(C)cc2)(c2ccc(N(C)c3ccccc3)cc2)C=C1 (centres unmarked) [Example 24] | A23 ([2]; listed as Formula (86)): 1.31 -; Maximum absorption wavelength ([2]; listed as Formula (86)): 607 nm
63 | 0.88 - | 505 | CCN(c1ccc(OC)cc1)c1ccc(C2(c3ccc(OC)cc3)C=Cc3c4c(c5cc(-c6ccc(N7CCOCC7)cc6)c(OC)cc5c3O2)-c2ccccc2C4(C)C)cc1 (centres unmarked) [Example 25] | A23 ([2]; listed as Formula (88)): 0.96 -; Maximum absorption wavelength ([2]; listed as Formula (88)): 613 nm

Source: patent EP4692072A1, “PHOTOCHROMIC COMPOUND, PROPARGYL ALCOHOL COMPOUND, CURABLE COMPOSITION, OPTICAL ARTICLE, LENS, AND SPECTACLES” (TOKUYAMA CORPORATION, priority 2023, dated 2024)
